Inconclusive results are not listed. Activity calls are given as the source filed them.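 How the source made its calls: active means compound lowering the normal-ribosome reporter at least twice as much as the humanized-ribosome reporter, growth loss under a set limit; inconclusive means no clear call, values can overlap the other calls; inactive means the rest.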
System: E. coli WT-GFP vs G2058-humanized RFP, fluorescence, 24 h
Experiment: E. coli strain growth, wild-type against G2058 humanized RFP mutant – G2058 mutant RFP vs wild-type GFP, cherry-pick, two tests, dose response (AID 1035470)
[1] = E. coli WT-GFP vs G2058-humanized RFP mixed culture, total growth OD600, 24 h
[2] = measured here: G2058 humanized mutant RFP growth

| Compound | AC50 | AC50 [1] | AC50 [2] |
| --- | --- | --- | --- |
| COc1ccc(Nc2nc(N)c([N+](=O)[O-])c(N3CCOCC3)n2)cc1 | > 100 µM (inactive) | > 100 µM | – |
| Nc1ccc(C(=O)OCCc2ccccc2)cc1 | > 100 µM (inactive) | – | 45.9 µM |
| C=CCn1c(C)cc(C(=O)COC(=O)CNC(=O)c2ccccc2)c1C | > 100 µM (inactive) | – | – |
| CC(C)(Nc1ccccc1)C(=O)c1ccccc1 | – | > 100 µM | – |
| O=C(COC(=O)c1ccc([N+](=O)[O-])o1)NC12CC3CC(CC(C3)C1)C2 | > 100 µM (inactive) | – | – |
| CCC1(C(=O)OC)CCc2c(cc(OC)c3ccccc23)C1=O (configuration not stated) | > 100 µM (inactive) | – | – |
| CCCCCc1nnc(NC(=O)C2COc3ccccc3O2)s1 (configuration not stated) | > 100 µM (inactive) | > 100 µM | 23.2 µM |
| CC1CCCC(NC(=O)COC(=O)Cc2c[nH]c3ccccc23)C1C (configuration not stated) | > 100 µM (inactive) | > 100 µM | – |
| O=[N+]([O-])c1cncc([N+](=O)[O-])c1Nc1cccc(O)c1 | > 100 µM (inactive) | > 100 µM | – |
| CSCCC1NC(=O)N(C(C)C(=O)Nc2cc(Cl)cc(Cl)c2)C1=O (configuration not stated) | > 100 µM (inactive) | > 100 µM | 7.38 µM |
| CC(C)C[C@H]1COc2cc(Br)ccc2S(=O)(=O)N1 | > 100 µM (inactive) | > 100 µM | > 100 µM |
| O=C(NCc1ccccc1Cl)c1ccc2c(c1)SC1=NS(=O)(=O)CCN12 | > 100 µM (inactive) | > 100 µM | – |
| O=C(CSc1ccc(-c2cccnc2)nn1)N1CCCc2ccccc21 | > 100 µM (inactive) | – | – |
| Nc1nc(Nc2ccccc2F)nc(N2CCOCC2)c1[N+](=O)[O-] | > 100 µM (inactive) | – | – |
| CCOc1ccc(S(=O)(=O)N(C)c2ccc(OCC(=O)NCc3cccnc3)cc2)cc1 | > 100 µM (inactive) | > 100 µM | – |
| O=C(Nc1cccc(Cl)c1)N1C[C@@H]2[C@H](c3ccccc31)[C@@H](CO)N2C(=O)c1cccnc1 | – | – | > 100 µM |
| COc1ccc(OC)c(S(=O)(=O)Nc2cccc3ccc(O)cc23)c1 | > 100 µM (inactive) | – | – |
| O=C(c1ccc(Cl)cc1)N1CCN(c2cccc3[nH]ccc23)CC1 | > 100 µM (inactive) | > 100 µM | – |
| COC(=O)c1ccc2nc(-c3cccc(Br)c3)c(Cc3ccsc3)n2c1 | > 100 µM (inactive) | – | > 100 µM |
| O=C(O)c1cc(-c2ccc(Cl)s2)nc2ccccc12 | > 100 µM (inactive) | – | – |
| O=c1c2ccccc2cnn1Cc1n[nH]c(=S)n1C1CC2CCC1C2 (configuration not stated) | > 100 µM (inactive) | > 100 µM | – |
| Cc1noc(C)c1NC(=O)Nc1ccc2c(c1)C(=O)N([C@@H](C)CO)C[C@@H](C)[C@H](CN(C)C(=O)Nc1ccc3c(c1)OCO3)OCCCC[C@H](C)O2 | – | > 100 µM | – |

| Compound | AC50 | AC50 [1] | AC50 [2] |
| --- | --- | --- | --- |
| COc1ccc(NC(=O)Nc2cccc3c2O[C@H](CN(C)S(=O)(=O)c2ccc(Cl)cc2)[C@H](C)CN([C@H](C)CO)C3=O)cc1 | > 100 µM (inactive) | – | – |
| COc1cccc(NC(=O)C(C)SCc2ccccc2)c1 (configuration not stated) | – | > 100 µM | – |
| C[n+]1ccccc1/C=C/c1cc(Br)ccc1O | > 100 µM (inactive) | – | – |
| Cc1cc([N+](=O)[O-])nn1CC(=O)Nc1cc(F)ccc1F | > 100 µM (inactive) | – | – |
| O=C(COC(=O)C1CC2C=CC1C2)Nc1ccc([N+](=O)[O-])cc1 (configuration not stated) | – | > 100 µM | > 100 µM |
| CCOc1ccc2nc(NC(=O)CSc3nc(SC)ns3)sc2c1 | > 100 µM (inactive) | > 100 µM | – |
| Cc1ccc(C2NC(=O)c3[nH]nc(-c4ccccc4)c32)cc1 (configuration not stated) | > 100 µM (inactive) | > 100 µM | – |
| CN(CC(=O)Nc1ccc(F)cc1)C(=O)COc1ccc([N+](=O)[O-])cc1Cl | > 100 µM (inactive) | > 100 µM | – |
| COc1cc2[nH]c(=S)nc(NCCc3ccc(C)cc3)c2cc1OC | > 100 µM (inactive) | – | – |
| CN1CCN(c2nc(Nc3ccc(O)cc3)nc3ccccc23)CC1 | > 100 µM (inactive) | > 100 µM | – |
| O=C(OCC1COc2ccccc2O1)c1ccccc1F (configuration not stated) | – | – | > 100 µM |
| Cc1ccc(C)c(-c2[nH]ncc2CN2CCCC(CO)(Cc3ccccc3C)C2)c1 (configuration not stated) | > 100 µM (inactive) | > 100 µM | – |
| CCOC(=O)c1sc(Nc2cccc(Cl)c2)nc1C | > 100 µM (inactive) | – | – |
| C=C1c2cc3c(cc2NC(=S)N1Cc1ccccc1)OCO3 | – | > 100 µM | – |
| CNC(=O)c1cc(C(=O)c2ccc(C(F)(F)F)cc2F)c[nH]1 | > 100 µM (inactive) | > 100 µM | – |
| O=C(c1ccc(N2CCCCC2)c([N+](=O)[O-])c1)N1CCN(c2ccccn2)CC1 | – | > 100 µM | – |
| Cc1ccc(Oc2ccc(S(=O)(=O)N3CCOCC3)cc2C(N)=O)cc1C | > 100 µM (inactive) | > 100 µM | – |
| Cn1nc(C(C)(C)C)c([N+](=O)[O-])c1C(=O)Nc1ccc(Br)cc1 | > 100 µM (inactive) | – | – |
| CCC(C(=O)NC1CCCC1)n1c(-c2ccnc3ccccc23)nc2ccccc21 (configuration not stated) | – | > 100 µM | – |
| CCCN1C(=O)C(O)(c2c(C)[nH]c3ccccc23)c2ccccc21 (configuration not stated) | – | > 100 µM | – |
| Cc1ccc2nc(-c3ccc(Cl)cc3)c(Cc3ccccc3C(F)(F)F)n2c1 | – | > 100 µM | – |
| CCOC(=O)c1c(NC(=O)CN2CCC(C)CC2)sc(C)c1C | > 100 µM (inactive) | – | – |

| Compound | AC50 | AC50 [1] | AC50 [2] |
| --- | --- | --- | --- |
| CN(C)CCNc1ncnc2c1sc1nc(N3CCCC3)c3c(c12)CC(C)(C)OC3 | > 100 µM (inactive) | > 100 µM | – |
| COc1cccc(CNC(=O)CCSCc2ccccc2F)c1 | > 100 µM (inactive) | – | > 100 µM |
| COc1cc(NC(=O)c2ccc(Cl)cc2)c(OC)cc1NC(=O)CN1CCCCC1 | – | > 100 µM | – |
| O=C(C[n+]1ccc(Cc2ccccc2)cc1)Nc1ccc([N+](=O)[O-])cc1Cl | – | – | > 100 µM |
| COc1ccc(OC)c(-c2nnc3n2N=C(c2ccc(OC)c(OC4CCOC4)c2)CS3)c1 (configuration not stated) | > 100 µM (inactive) | – | – |
| O=C(CN1C(=O)c2ccccc2C1=O)Nc1cccc(S(=O)(=O)Nc2ccccc2Cl)c1 | > 100 µM (inactive) | > 100 µM | – |
| CCN(CC)S(=O)(=O)c1ccc(N2CCCC2)c(NC(=O)c2ccccc2OC)c1 | > 100 µM (inactive) | – | – |
| CC(=O)Oc1ccc(N(c2ccccc2)S(=O)(=O)c2ccc(C)cc2)cc1 | – | > 100 µM | – |
| COc1ccc(-c2cc(C(=O)N3CCc4ccccc4C3)no2)cc1 | > 100 µM (inactive) | – | – |
| CCCCNC(=O)c1onc(CSc2cc(C)cc(C)c2)c1C(=O)O | > 100 µM (inactive) | 37.3 µM | – |
| Cc1ccc(-c2nc3ccc(NS(=O)(=O)c4ccccc4)cc3[nH]2)o1 | > 100 µM (inactive) | – | – |
| Brc1cc2c(cc1Br)OCCOCCOCCO2 | > 100 µM (inactive) | > 100 µM | > 100 µM |
| CC(C)(C)C1CCC(OC(=O)C[N+]2(C)CCCCC2)CC1 (configuration not stated) | > 100 µM (inactive) | > 100 µM | – |
| CCOc1ccccc1OCCCC(=O)N1CCN(S(=O)(=O)c2cc(F)ccc2F)CC1 | > 100 µM (inactive) | – | – |
| COc1ccc(CC(=O)NCc2csc(-c3cccs3)n2)cc1OC | > 100 µM (inactive) | – | – |
| COc1ccc(-n2c(-c3ccc(C)cc3)nc3ccccc3c2=O)cc1 | > 100 µM (inactive) | – | – |
| CCOc1ccc2oc(-c3ccccc3)c(C(=O)N(C)C)c2c1 | > 100 µM (inactive) | > 100 µM | – |
| O=C(O)c1ccccc1NC(=O)C(c1ccccc1)c1ccccc1 | > 100 µM (inactive) | – | – |
| CC(C)(C)CC(=O)Nc1ccccc1N1CCN(c2ccccc2)CC1 | > 100 µM (inactive) | – | – |
| COc1ccc(OC2C(=O)N(Cc3ccc4c(c3)OCO4)C2c2sccc2C)cc1 (configuration not stated) | > 100 µM (inactive) | > 100 µM | – |
| COCC#Cc1ccc2c(c1)O[C@H](CN(C)C(=O)c1ccccc1)[C@@H](C)CN([C@H](C)CO)S2(=O)=O | – | > 100 µM | – |
| O=C(COC(=O)C1CC2C=CC1C2)NCCc1ccccc1 (configuration not stated) | – | > 100 µM | – |

| Compound | AC50 | AC50 [1] | AC50 [2] |
| --- | --- | --- | --- |
| CCOC(=O)c1ccc(NC(=O)COc2ccc(CNCCO)cc2OCC)cc1 | > 100 µM (inactive) | – | – |
| COc1ccc(C#Cc2ccc([C@H]3[C@@H](CO)N4CCCCN(C(=O)Nc5cccc(F)c5)C[C@H]34)cc2)cc1 | – | > 100 µM | – |
| N#Cc1ccc(C(=O)Nc2ccn(-c3ccccc3)n2)cc1 | > 100 µM (inactive) | – | – |
| CCOC(=O)c1c(C)[nH]c(C)c1S(=O)(=O)NCCN1CCN(c2ccccc2F)CC1 | > 100 µM (inactive) | > 100 µM | – |
| CCN(CC(=O)Nc1ccccc1OC)CC(=O)Nc1c(Cl)ccc(C)c1Cl | > 100 µM (inactive) | > 100 µM | – |
| COc1ccc(OC)c(NC(=O)COc2ccc(S(=O)(=O)NC(C)C)cc2)c1 | – | > 100 µM | – |
| C=CCN(CC=C)C(=O)c1ccc2nc(Cc3ccc(OC)c(OC)c3)oc2c1 | > 100 µM (inactive) | – | – |
| CC(C)NC(=O)N(C)C[C@H]1OCCCC[C@@H](C)Oc2ccc(NC(=O)c3ccccc3)cc2C(=O)N([C@@H](C)CO)C[C@H]1C | > 100 µM (inactive) | – | – |
| NS(=O)(=O)c1ccc(NC(=O)CCC(=O)O)cc1 | – | > 100 µM | – |
| COc1ccccc1OCC(=O)Nc1ccc(S(=O)(=O)N2CCCCCC2)cc1 | > 100 µM (inactive) | > 100 µM | – |
| Cc1onc(-c2ccccc2Cl)c1C(=O)OCC(=O)c1ccccc1 | > 100 µM (inactive) | – | – |
| CC1CCC2(CC1)SCC(=O)N2c1ccc(F)cc1 (configuration not stated) | > 100 µM (inactive) | > 100 µM | 35.3 µM |
| Cc1cc(C)n2nc(C(=O)Nc3cccc(S(=O)(=O)N(C)c4ccccc4)c3)nc2n1 | > 100 µM (inactive) | – | – |
| Cc1cc(C(=O)Nc2cccc3c2O[C@H](CN(C)S(=O)(=O)c2ccc(Cl)cc2)[C@H](C)CN([C@H](C)CO)C3=O)n(C)n1 | > 100 µM (inactive) | – | 32.9 µM |
| CC1C=Cc2ccccc2N1C(=O)c1ccccc1 (configuration not stated) | > 100 µM (inactive) | – | – |
| COc1ccc(CNc2cc([N+](=O)[O-])ccc2OC)cc1 | > 100 µM (inactive) | > 100 µM | > 100 µM |
| CN(C)C(CNS(=O)(=O)c1cc([N+](=O)[O-])ccc1Cl)c1ccco1 (configuration not stated) | > 100 µM (inactive) | – | – |
| COc1cc2cc(C(=O)Nc3ccc4c(c3)OCCO4)[nH]c2cc1OC | > 100 µM (inactive) | – | – |
| Cc1cccc(C)c1-n1nnnc1C1(C)CCC(=O)N1Cc1cccs1 (configuration not stated) | > 100 µM (inactive) | – | – |
| O=C(CSc1nc(C2CC2)nc2ccccc12)Nc1ccccc1N1CCOCC1 | > 100 µM (inactive) | > 100 µM | – |

Reference: PubChem BioAssay AID1035470 (Broad Institute, 2014)
